Activity calls are given as the source filed them. The rule behind the calls is not given here.
Tests used:
Pseudomonas aeruginosa = test: In vivo antibacterial activity against Pseudomonas aeruginosa infected in sc dosed CF1 mouse assessed as protection against bacterial infection administered as two doses; assay type: functional
Streptococcus pyogenes = test: In vivo antibacterial activity against Streptococcus pyogenes infected in CF1 mouse assessed as protection against bacterial infection administered as two doses; assay type: functional
Salmonella [1] = test: In vivo antibacterial activity against Salmonella schottmuelleri infected in CF1 mouse assessed as protection against bacterial infection administered as two doses; assay type: functional
Proteus mirabilis = test: In vivo antibacterial activity against Proteus mirabilis infected in CF1 mouse assessed as protection against bacterial infection administered as two doses; assay type: functional
Staphylococcus aureus = test: In vivo antibacterial activity against Staphylococcus aureus infected in CF1 mouse assessed as protection against bacterial infection administered as two doses; assay type: functional
Streptococcus pneumoniae = test: In vivo antibacterial activity against Diplococcus pneumoniae I infected in CF1 mouse assessed as protection against bacterial infection administered as two doses; assay type: functional
[2] = Acute toxicity in po dosed mouse administered as single dose; assay type: organism-based; settings: in vivo
Escherichia coli = test: In vivo antibacterial activity against Escherichia coli infected in CF1 mouse assessed as protection against bacterial infection administered as two doses; assay type: functional
Salmonella [3] = test: In vivo antibacterial activity against Salmonella typhosa infected in CF1 mouse assessed as protection against bacterial infection administered as two doses; assay type: functional
[4] = Acute toxicity in sc dosed mouse administered as single dose; assay type: organism-based; settings: in vivo
Histomonas meleagridis = test: In vivo antiprotozoal activity against Histomonas meleagridis infected in turkey; assay type: functional, organism-based
Shigella flexneri = test: In vivo antibacterial activity against Shigella paradysenteriae infected in CF1 mouse assessed as protection against bacterial infection administered as two doses; assay type: functional
Listeria monocytogenes = test: In vivo antibacterial activity against Listeria monocytogenes infected in CF1 mouse assessed as protection against bacterial infection administered as two doses; assay type: functional
[5] = Acute toxicity in ip dosed mouse administered as single dose; assay type: organism-based; settings: in vivo
Salmonella enteritidis = test: In vivo antibacterial activity against Salmonella enteriditis infected in CF1 mouse assessed as protection against bacterial infection administered as two doses; assay type: functional, Salmonella enterica subsp. enterica serovar Enteritidis; settings: Salmonella enterica
Proteus vulgaris = test: In vivo antibacterial activity against Proteus vulgaris infected in CF1 mouse assessed as protection against bacterial infection administered as two doses; assay type: functional
Shigella dysenteriae = test: In vivo antibacterial activity against Shigella dysenteriae infected in CF1 mouse assessed as protection against bacterial infection administered as two doses; assay type: functional
Klebsiella pneumoniae = test: In vivo antibacterial activity against Klebsiella pneumoniae infected in CF1 mouse assessed as protection against bacterial infection administered as two doses; assay type: functional
Salmonella typhimurium = test: In vivo antibacterial activity against Salmonella typhimurium infected in CF1 mouse assessed as protection against bacterial infection administered as two doses; assay type: functional, Salmonella enterica subsp. enterica serovar Typhimurium; settings: Salmonella enterica
Pasteurella multocida = test: In vivo antibacterial activity against Pasteurella multocida infected in CF1 mouse assessed as protection against bacterial infection administered as two doses; assay type: functional

Row | Compound | ED50 (Pseudomonas aeruginosa) [mg/kg] | ED50 (Streptococcus pyogenes) [mg/kg] | ED50 (Salmonella [1]) [mg/kg] | ED50 (Proteus mirabilis) [mg/kg] | ED50 (Staphylococcus aureus) [mg/kg] | ED50 (Streptococcus pneumoniae) [mg/kg] | LD50 [2] [mg/kg] | ED50 (Escherichia coli) [mg/kg] | ED50 (Salmonella [3]) [mg/kg] | LD50 [4] [mg/kg] | Activity (Histomonas meleagridis) | ED50 (Shigella flexneri) [mg/kg] | ED50 (Listeria monocytogenes) [mg/kg] | LD50 [5] [mg/kg] | ED50 (Salmonella enteritidis) [mg/kg] | ED50 (Proteus vulgaris) [mg/kg] | ED50 (Shigella dysenteriae) [mg/kg] | ED50 (Klebsiella pneumoniae) [mg/kg] | ED50 (Salmonella typhimurium) [mg/kg] | ED50 (Pasteurella multocida) [mg/kg]
1 | Cc1c(/C=[N+](\C)[O-])[n+]([O-])c2ccccc2[n+]1[O-] | > 250 | 35 | 1.5 | 18 | 74 | 32 | > 1000 | 10 | 10 | 596 | inactive | 13 | > 100 | 596 | 2 | 35 | 62 | 6 | 16 | 7
2 | O=C(N[C@H](CO)[C@H](O)c1ccc([N+](=O)[O-])cc1)C(Cl)Cl [CHLORAMPHENICOL] | – | 27 | 9 | 52 | 27 | – | 2640 | 41 | 24 | – | inactive | – | > 100 | 1320 | 29 | > 100 | 61 | 20 | 16 | 11
3 | O=[N+]([O-])c1ccc(/C=[N+](/[O-])CCO)o1 [NIFURATRONE] | > 100 | 47 | 8 | 53 | 26 | > 100 | 518 | 27 | 31 | 417 | inactive | 46 | > 100 | – | 47 | – | – | 39 | 30 | < 50

Reference: ChEMBL document CHEMBL3244111, “Nitrones. 7. alpha-Quinoxalinyl-N-substituted nitrone 1,4-dioxides” (J Med Chem, 1977)
